Results from PubChem BioAssay AID2060606 (Molecular Pharmacology Branch, DTP, NCI, 2025).
pIC50: −log10 of the molar value. “And” between values parts separate entries of the source, which are not always exact repeats. Equal values may be shown once. Blank lines part the entries; values can stand above or below the molecule they belong to.

System: 922993-354-T-J3-PDC complex spheroids, viability, % test/control
Experiment: Anticancer human tumor 922993-354-T-J3-PDC patient-derived endometrial carcinoma cell line growth inhibition [CLK]
Details: for viability, T/C: stronger effect = lower value
Description: A high-throughput screen of multi-cell type tumor spheroids was designed to identify active combinations of […] and targeted small molecules. Complex spheroids include a stromal component modeled by human endothelial cells (HUVEC) and fibroblasts modeled by human mesenchymal stem cells (MSCs). The concentration ranges selected for each drug and investigational agent were based upon clinically achievable concentrations if the clinical Cmax of the agent was known.
Compounds. The drugs and investigational agents: cirtuvivint (SM08502; NSC835563), CC-671 (NSC850746), vemurafenib (NSC761431), tapotoclax (NSC804041), sotorasib (NSC818433), adagrasib (NSC831453), MRTX-1133 (NSC836407), BAY2416964 (NSC825713), copanlisib (NSC816437), inavolisib (NSC800729), abemaciclib (NSC768073), osimertinib (NSC779217), entinostat (NSC756642), eltanexor (KPT-8602, NSC794443), venetoclax (NSC766270), ceralasertib (NSC777638), bortezomib (NSC756655), olaparib (NSC753686), talazoparib (NSC767125), alisertib (NSC759677), peposertib (NSC802822), gemcitabine (NSC613327), 5-fluorouracil (NSC19893), SN-38 (NSC673596), oxaliplatin (NSC266046), paclitaxel (NSC125973), and doxorubicin (NSC123127), were obtained from the National Cancer Institute (NCI) Developmental Therapeutics Program Chemical Repository. The FDA-approved anticancer drug set is available from the Developmental Therapeutics Program at https://dtp.cancer.gov/organization/dscb/obtaining/available plates.htm. […] The stock solutions were prepared in dimethyl sulfoxide (DMSO, Sigma-Aldrich, St. Louis, MO, cat. D2650), except for the platinum complexes which were prepared in saline (Quality Biological, Gaithersburg, MD, cat. 114-055-101), at 800-fold the tested concentration and stored at -70 degrees C prior to their use. All drugs and investigational agents were tested over a range starting from a high concentration at or near the clinical Cmax and decreasing in half-log increments. If the clinical Cmax for an agent had not been determined, the highest concentration tested was 10 microM.
Cell Culture. All cells were maintained in an incubator at 37 degrees C and 5% CO2 with 95% humidity. The PDC lines were cultured according to standard operating procedures established by the NCI PDMR. Briefly, all PDCs were thawed and cultured in Matrigel-coated flasks prepared with a working solution of 1X Ham's F-12 nutrient mix, without supplementation (Invitrogen, Waltham, MA, cat. 11765054), 100 U/mL penicillin-streptomycin (Invitrogen, cat. 15140122), and 2.5% Matrigel (Corning Inc., Corning, NY, cat. 354248) for the first three passages. The 947758-054-R-J2-PDC line was cultured in 6B/Colon 1A media, which includes advanced DMEM/F-12 (Thermo Fisher Scientific, cat. 12634028), 10 mM HEPES (Thermo Fisher Scientific, cat. 15630080), 1X GlutaMAX supplement (Thermo Fisher Scientific, cat. 35050061), 0.1 mg/mL primocin (InvivoGen, cat. ant-pm-2), 10% defined fetal bovine serum, heat inactivated (HyClone Laboratories Inc., cat. SH30070.03HI), 1.25 mM N-Acetyl-L-cysteine (Sigma-Aldrich, cat. A9165), 10 mM nicotinamide (Sigma-Aldrich, cat. N0636), 1X B-27 supplement (Thermo Fisher Scientific, cat. 17504044), 1X N-2 supplement (Thermo Fisher Scientific, cat. 17502048), and 10 microM Y-27632 dihydrochloride (Tocris Bioscience, cat. 1254). The 876862-298-R-J1-PDC was cultured in 6E media, which includes all 6B/Colon 1A media components plus 50% L-WRN conditioned media (ATCC, cat. CRL-3276), 50 ng/mL recombinant human EGF recombinant protein (hEGF; Thermo Fisher Scientific, cat. PHG0311), 10 ng/mL recombinant human fibroblast growth factor 10 (hGFG-10; PeproTech, cat. 100-26), 1 ng/mL recombinant human fibroblast growth factor 2 (hFGF-2; PeproTech, cat. 100-18B), and 1 µM prostaglandin E2 (PGE2; Tocris, cat. 2296). The 227483-062-R1-J1-PDC line was cultured in Panc media, containing all 6E components except hFGF-2, with the addition of 500 nM SB-431542 (Selleckchem, cat. S1067) and 10 nM gastrin (Tocris, cat. 3006). […]

[1] = curve of first compound, second compound 0.0316 µM
[2] = curve of first compound, second compound 0.1 µM
[3] = curve of first compound, second compound 0.316 µM
[4] = curve of first compound, second compound 1 µM
[5] = curve of first compound, second compound 3.16 µM
[6] = curve of first compound, second compound 10 µM
[7] = second compound 0.0316 µM, first compound 0.0316 µM
[8] = second compound 0.0316 µM, first compound 0.1 µM
[9] = second compound 0.0316 µM, first compound 0.316 µM
[10] = second compound 0.0316 µM, first compound 1 µM
[11] = second compound 0.0316 µM, first compound 3.16 µM
[12] = second compound 0.0316 µM, first compound 10 µM
[13] = second compound 0.1 µM, first compound 0.0316 µM
[14] = second compound 0.1 µM, first compound 0.1 µM
[15] = second compound 0.1 µM, first compound 0.316 µM
[16] = second compound 0.1 µM, first compound 1 µM
[17] = second compound 0.1 µM, first compound 3.16 µM
[18] = second compound 0.1 µM, first compound 10 µM
[19] = second compound 0.316 µM, first compound 0.0316 µM
[20] = second compound 0.316 µM, first compound 0.1 µM
[21] = second compound 0.316 µM, first compound 0.316 µM
[22] = second compound 0.316 µM, first compound 1 µM
[23] = second compound 0.316 µM, first compound 3.16 µM
[24] = second compound 0.316 µM, first compound 10 µM
[25] = second compound 1 µM, first compound 0.0316 µM
[26] = second compound 1 µM, first compound 0.1 µM
[27] = second compound 1 µM, first compound 0.316 µM
[28] = second compound 1 µM, first compound 1 µM
[29] = second compound 1 µM, first compound 3.16 µM
[30] = second compound 1 µM, first compound 10 µM
[31] = second compound 3.16 µM, first compound 0.0316 µM
[32] = second compound 3.16 µM, first compound 0.1 µM
[33] = second compound 3.16 µM, first compound 0.316 µM
[34] = second compound 3.16 µM, first compound 1 µM
[35] = second compound 3.16 µM, first compound 3.16 µM
[36] = second compound 3.16 µM, first compound 10 µM
[37] = second compound 10 µM, first compound 0.0316 µM
[38] = second compound 10 µM, first compound 0.1 µM
[39] = second compound 10 µM, first compound 0.316 µM
[40] = second compound 10 µM, first compound 1 µM
[41] = second compound 10 µM, first compound 3.16 µM
[42] = second compound 10 µM, first compound 10 µM
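Further: spheroids exposed to the agents for 7 days before readout.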

SMILES: C=CC(=O)N1CCN(c2nc(=O)n(-c3c(C)ccnc3C(C)C)c3nc(-c4c(O)cccc4F)c(F)cc23)C(C)C1 (stereo not given) + CN1CCN(c2cc(C(=O)Nc3cc4cc(-c5cnn(C)c5)ccc4cn3)ccn2)CC1
pIC50 [1]: < 5.00
pIC50 [2]: < 5.00
pIC50 [3]: 7.36
pIC50 [4]: > 7.50
pIC50 [5]: > 7.50
pIC50 [6]: > 7.50
viability, T/C [7]: 121%
viability, T/C [8]: 123%
viability, T/C [9]: 132%
viability, T/C [10]: 116%
viability, T/C [11]: 112%
viability, T/C [12]: 112%
viability, T/C [13]: 105%
viability, T/C [14]: 98.6%
viability, T/C [15]: 114%
viability, T/C [16]: 91.6%
viability, T/C [17]: 106%
viability, T/C [18]: 90.1%
viability, T/C [19]: 50.9%
viability, T/C [20]: 48.5%
viability, T/C [21]: 43.5%
viability, T/C [22]: 37.8%
viability, T/C [23]: 41.4%
viability, T/C [24]: 47.4%
viability, T/C [25]: 0.19%
viability, T/C [26]: 0.68%
viability, T/C [27]: 0.16%
viability, T/C [28]: 0.93%
viability, T/C [29]: 0.13%
viability, T/C [30]: 0.12%
viability, T/C [31]: 0.13%
viability, T/C [32]: 0.17%
viability, T/C [33]: 1.53%
viability, T/C [34]: 0.1%
viability, T/C [35]: 0.14%
viability, T/C [36]: 1.14%
viability, T/C [37]: 0.16%
viability, T/C [38]: 0.18%
viability, T/C [39]: 0.17%
viability, T/C [40]: 0.15%
viability, T/C [41]: 0.79%
viability, T/C [42]: 0.2%

SMILES: CCCS(=O)(=O)Nc1ccc(F)c(C(=O)c2c[nH]c3ncc(-c4ccc(Cl)cc4)cc23)c1F + CN1CCN(c2cc(C(=O)Nc3cc4cc(-c5cnn(C)c5)ccc4cn3)ccn2)CC1
pIC50 [1]: < 5.00
pIC50 [2]: 5.04
pIC50 [3]: > 7.50
pIC50 [4]: > 7.50
pIC50 [5]: > 7.50
pIC50 [6]: > 7.50
viability, T/C [7]: 95.3%
viability, T/C [8]: 113%
viability, T/C [9]: 118%
viability, T/C [10]: 97.9%
viability, T/C [11]: 96.6%
viability, T/C [12]: 65.3%
viability, T/C [13]: 107%
viability, T/C [14]: 90.5%
viability, T/C [15]: 91.5%
viability, T/C [16]: 87.6%
viability, T/C [17]: 86.2%
viability, T/C [18]: 46.7%
viability, T/C [19]: 46.6%
viability, T/C [20]: 40.4%
viability, T/C [21]: 43.4%
viability, T/C [22]: 43.9%
viability, T/C [23]: 44.6%
viability, T/C [24]: 26.7%
viability, T/C [25]: 0.14%
viability, T/C [26]: 0.16%
viability, T/C [27]: 0.15%
viability, T/C [28]: 0.15%
viability, T/C [29]: 1.71%
viability, T/C [30]: 1.78%
viability, T/C [31]: 0.09%
viability, T/C [32]: 0.13%
viability, T/C [33]: 0.82%
viability, T/C [34]: 0.14%
viability, T/C [35]: 2.22%
viability, T/C [36]: 1.32%
viability, T/C [37]: 0.18%
viability, T/C [38]: 0.16%
viability, T/C [39]: 1.26%
viability, T/C [40]: 0.19%
viability, T/C [41]: 1.53%
viability, T/C [42]: 0.25%

SMILES: COC1C=CCC(C)C(C)S(=O)(=O)NC(=O)c2ccc3c(c2)N(CC2CCC21)CC1(CCCc2cc(Cl)ccc21)CO3 (stereo not given) + CN1CCN(c2cc(C(=O)Nc3cc4cc(-c5cnn(C)c5)ccc4cn3)ccn2)CC1
pIC50 [1]: 5.27
pIC50 [2]: 5.42
pIC50 [3]: > 7.50
pIC50 [4]: > 7.50
pIC50 [5]: > 7.50
pIC50 [6]: > 7.50
viability, T/C [7]: 111%
viability, T/C [8]: 107%
viability, T/C [9]: 85.1%
viability, T/C [10]: 91.4%
viability, T/C [11]: 84.9%
viability, T/C [12]: 13.6%
viability, T/C [13]: 122%
viability, T/C [14]: 99.7%
viability, T/C [15]: 85.6%
viability, T/C [16]: 90.1%
viability, T/C [17]: 60.6%
viability, T/C [18]: 10.8%
viability, T/C [19]: 42.2%
viability, T/C [20]: 48%
viability, T/C [21]: 31.7%
viability, T/C [22]: 21.1%
viability, T/C [23]: 13.6%
viability, T/C [24]: 7.1%
viability, T/C [25]: 0.12%
viability, T/C [26]: 0.13%
viability, T/C [27]: 0.15%
viability, T/C [28]: 0.22%
viability, T/C [29]: 0.1%
viability, T/C [30]: 0.79%
viability, T/C [31]: 0.11%
viability, T/C [32]: 0.17%
viability, T/C [33]: 1.93%
viability, T/C [34]: 0.13%
viability, T/C [35]: 2.55%
viability, T/C [36]: 0.89%
viability, T/C [37]: 0.15%
viability, T/C [38]: 1.42%
viability, T/C [39]: 1.53%
viability, T/C [40]: 0.22%
viability, T/C [41]: 0.8%
viability, T/C [42]: 2.41%

Continued, in another order:

IC50 (compound alone, run of 09/18/2023): 266 nM [middle of 12 runs]
SMILES: CN1CCN(c2cc(C(=O)Nc3cc4cc(-c5cnn(C)c5)ccc4cn3)ccn2)CC1
viability, T/C (compound 0.1 µM): 97.6% [middle of 12 runs]
viability, T/C (compound 1 µM): 1.97% [middle of 12 runs]
viability, T/C (compound 3.16 µM): 0.81% [middle of 12 runs]
viability, T/C (compound 10 µM): 0.24% [middle of 12 runs]

pIC50 (curve of compound): < 5.00
SMILES: COc1ccc([C@@H](O)c2cc(-c3ncnc4cc(N5CCOCC5)ccc34)c(F)cc2Cl)nn1
viability, T/C (compound 0.0316 µM): 87.2% and 87.1%
viability, T/C (compound 0.1 µM): 104% and 94.9%
viability, T/C (compound 0.316 µM): 87.7% and 98.9%
viability, T/C (compound 1 µM): 113% and 98.2%
viability, T/C (compound 3.16 µM): 85.8% and 117%
viability, T/C (compound 10 µM): 82.8% and 89.9%

pIC50 (curve of compound): 5.72 and 5.63
SMILES: COc1cccc2c1C(=O)c1c(O)c3c(c(O)c1C2=O)CC(O)(C(=O)CO)CC3OC1CC(N)C(O)C(C)O1 (stereo not given)
viability, T/C (compound 0.0316 µM): 92.5% and 100%
viability, T/C (compound 0.1 µM): 97.2% and 86%
viability, T/C (compound 0.316 µM): 91.5% and 102%
viability, T/C (compound 1 µM): 63.7% and 75.1%
viability, T/C (compound 3.16 µM): 38.8% and 41.3%
viability, T/C (compound 10 µM): 13.7% and 21.8%
